Measured values published in patent US12312419B2, “Hemiasterlin derivative having cysteine residue” (priority 2019, dated 2025).

System: Karpas-299 cells
Test: Cellular toxicity test (1), CellTiter-Glo cell viability
Assay type: cell-based, human
Settings: Homo sapiens, 96 h; Karpas-299; cultured 4 days; cell viability
Protocol: Karpas-299 cells (European Collection of Authenticated Cell Cultures, hereinafter, ECACC), which are human lymphoma cell lines, were cultured in RPMI 1640 (GIBCO) containing 10% fetal bovine serum (MP Biomedicals) (hereinafter, referred to as the “culture medium”). Cells were prepared to be 2×10^5 cells/mL in the culture medium, and were added to a 96 well microplate for cell culturing in an amount of 50 μL for each well. Compounds of Examples or the Comparative Example compound 4 times diluted with the culture medium in 8 stages were added to the microplate in an amount of 50 μL for each well. These were cultured at 37° C. under 5% CO2 for 4 days. After culturing, the microplate was taken out from the incubator, and was left at rest at room temperature for 10 minutes. To each well, 50 μL of CellTiter-Glo Luminescent Cell Viability Assay (Promega) was added, and the resultant mixture was stirred. This mixture was incubated at a dark place for 20 minutes. Using a microplate luminometer, luminescence at each well was measured, thereby calculating the cell viability. From the value of the cell viability, the IC50 value was calculated.
The IC50 value was calculated by the following formula: IC50(nM)=antilog(LOG10(a/b)×(e−d)/(c−d)+LOG10b) • a: concentration a of test substance • b: concentration b of test substance • c: cell viability upon adding test substance with concentration a • d: cell viability upon adding test substance with concentration b • e: intermediate value between maximum and minimum among cell viabilities upon adding test substances with different concentrations (a and b are concentrations crossing the cell viability e, and a>b is indicated).
The cell viability at each concentration was calculated by the following formula: Cell Viability (%)=a′/b′×100 • a′: mean value of luminescence amount of wells to which test substance was added (n=6) • b′: mean value of luminescence amount of wells to which test substance was not added (n=6) • (n represents the number of evaluations performed per test substance concentration).

Q: For `CN[C@H](C(=O)N[C@H](C(=O)N(C)[C@H](/C=C(\C)C(=O)N[C@H](CCC(=O)N[C@@H](CCCCNC(=O)CCCCCN1C(=O)CC(SC[C@H](N)C(=O)O)C1=O)C(=O)O)C(=O)O)C(C)C)C(C)(C)C)C(C)(C)c1cn(C)c2ccccc12` (stereo partly drawn) [Example MM2], which IC50 is on record?
A: 459 nM

Q: For `CN[C@H](C(=O)N[C@H](C(=O)N(C)[C@H](/C=C(\C)C(=O)N[C@H](CCC(=O)N[C@H](CCC(=O)NCCN1C(=O)CC(SC[C@H](N)C(=O)O)C1=O)C(=O)O)C(=O)O)C(C)C)C(C)(C)C)C(C)(C)c1cn(C)c2ccccc12` (stereo partly drawn) [Example MM3], which IC50 is on record?
A: 387 nM

Q: How did the IC50 turn out when `CN[C@H](C(=O)N[C@H](C(=O)N(C)[C@H](/C=C(\C)C(=O)N[C@H](CCC(=O)NCCN1C(=O)CC(SC[C@H](N)C(=O)O)C1=O)C(=O)O)C(C)C)C(C)(C)C)C(C)(C)c1cn(C)c2ccccc12` (stereo partly drawn) [Example MM4] was run?
A: 289 nM

Q: For `CN[C@H](C(=O)N[C@H](C(=O)N(C)[C@H](/C=C(\C)C(=O)NCCCC[C@@H](NC(=O)CCCN1C(=O)CC(SC[C@H](N)C(=O)O)C1=O)C(=O)O)C(C)C)C(C)(C)C)C(C)(C)c1cn(C)c2ccccc12` (stereo partly drawn) [Example MM5], which IC50 is on record?
A: > 1000 nM

Q: How did the IC50 turn out when `CN[C@H](C(=O)N[C@H](C(=O)N(C)[C@H](/C=C(\C)C(=O)N[C@H](CCC(=O)N[C@H](CCC(=O)NCCN1C(=O)CC(SC[C@H](N)C(=O)O)C1=O)C(=O)O)C(=O)O)C(C)C)C(C)(C)C)C(C)(C)c1ccccc1` (stereo partly drawn) [Example MM6] was run?
A: > 1000 nM

Q: For `CN[C@H](C(=O)N[C@H](C(=O)N(C)[C@H](/C=C(\C)C(=O)N[C@H](CCC(=O)N[C@H](CCC(=O)N[C@H](CCC(=O)NCCN1C(=O)CC(SC[C@H](N)C(=O)O)C1=O)C(=O)O)C(=O)O)C(=O)O)C(C)C)C(C)(C)C)C(C)(C)c1ccccc1` (stereo partly drawn) [Example MM7], which IC50 is on record?
A: > 1000 nM

Q: For `CN[C@H](C(=O)N[C@H](C(=O)N(C)[C@H](/C=C(\C)C(=O)N[C@H](CC(=O)NCCN1C(=O)CC(SC[C@H](N)C(=O)O)C1=O)C(=O)O)C(C)C)C(C)(C)C)C(C)(C)c1ccccc1` (stereo partly drawn) [Example MM9], which IC50 is on record?
A: > 1000 nM

Q: How did the IC50 turn out when `CN[C@H](C(=O)N[C@H](C(=O)N(C)[C@H](/C=C(\C)C(=O)N[C@@H](CC(=O)NCCN1C(=O)CC(SC[C@H](N)C(=O)O)C1=O)C(=O)O)C(C)C)C(C)(C)C)C(C)(C)c1ccccc1` (stereo partly drawn) [Example MM10] was run?
A: > 1000 nM

Q: `CN[C@H](C(=O)N[C@H](C(=O)N(C)[C@H](/C=C(\C)C(=O)N[C@H](CC(=O)O)C(=O)NCCN1C(=O)CC(SC[C@H](N)C(=O)O)C1=O)C(C)C)C(C)(C)C)C(C)(C)c1ccccc1` (stereo partly drawn) [Example MM13] was tested. Which IC50 did it give?
A: > 1000 nM

Q: Which IC50 does the source give for `CN[C@H](C(=O)N[C@H](C(=O)N(C)[C@H](/C=C(\C)C(=O)N[C@@H](CC(=O)O)C(=O)NCCN1C(=O)CC(SC[C@H](N)C(=O)O)C1=O)C(C)C)C(C)(C)C)C(C)(C)c1ccccc1` (stereo partly drawn) [Example MM14] here?
A: > 1000 nM

Q: `CN[C@H](C(=O)N[C@H](C(=O)N(C)[C@H](/C=C(\C)C(=O)N[C@H](CCC(=O)NCCCN1C(=O)CC(SC[C@H](N)C(=O)O)C1=O)C(=O)O)C(C)C)C(C)(C)C)C(C)(C)c1ccccc1` (stereo partly drawn) [Example MM16] was tested. Which IC50 did it give?
A: 867 nM

Q: `CN[C@H](C(=O)N[C@H](C(=O)N(C)[C@H](/C=C(\C)C(=O)N[C@@H](CC(=O)NCCN1C(=O)CC(SC[C@H](N)C(=O)O)C1=O)C(=O)O)C(C)C)C(C)(C)C)C(C)(C)c1cn(C)c2ccccc12` (stereo partly drawn) [Example MM19] was tested. Which IC50 did it give?
A: 303 nM

Q: `CN[C@H](C(=O)N[C@H](C(=O)N(C)[C@H](/C=C(\C)C(=O)N[C@H](CC(=O)NCCN1C(=O)CC(SC[C@H](N)C(=O)O)C1=O)C(=O)O)C(C)C)C(C)(C)C)C(C)(C)c1cn(C)c2ccccc12` (stereo partly drawn) [Example MM20] was tested. Which IC50 did it give?
A: 337 nM

Q: With `CN[C@H](C(=O)N[C@H](C(=O)N(C)[C@H](/C=C(\C)C(=O)N[C@@H](CC(=O)O)C(=O)NCCN1C(=O)CC(SC[C@H](N)C(=O)O)C1=O)C(C)C)C(C)(C)C)C(C)(C)c1cn(C)c2ccccc12` (stereo partly drawn) [Example MM21] as the compound, how does the IC50 read?
A: 471 nM

Q: How did the IC50 turn out when `CN[C@H](C(=O)N[C@H](C(=O)N(C)[C@H](/C=C(\C)C(=O)N[C@@H](CCC(=O)O)C(=O)NCCN1C(=O)CC(SC[C@H](N)C(=O)O)C1=O)C(C)C)C(C)(C)C)C(C)(C)c1cn(C)c2ccccc12` (stereo partly drawn) [Example MM22] was run?
A: 740 nM

Q: How did the IC50 turn out when `CN[C@H](C(=O)N[C@H](C(=O)N(C)[C@H](/C=C(\C)C(=O)N[C@H](CC(=O)O)C(=O)NCCN1C(=O)CC(SC[C@H](N)C(=O)O)C1=O)C(C)C)C(C)(C)C)C(C)(C)c1cn(C)c2ccccc12` (stereo partly drawn) [Example MM24] was run?
A: 521 nM

Q: With `CN[C@H](C(=O)N[C@H](C(=O)N(C)[C@H](/C=C(\C)C(=O)N[C@H](CCC(=O)O)C(=O)NCCN1C(=O)CC(SC[C@H](N)C(=O)O)C1=O)C(C)C)C(C)(C)C)C(C)(C)c1cn(C)c2ccccc12` (stereo partly drawn) [Example MM25] as the compound, how does the IC50 read?
A: 555 nM

Q: How did the IC50 turn out when `CN[C@H](C(=O)N[C@H](C(=O)N(C)[C@H](/C=C(\C)C(=O)N[C@H](CCC(=O)N[C@@H](CCCCNC(=O)CCN1C(=O)CC(SC[C@H](N)C(=O)O)C1=O)C(=O)O)C(=O)O)C(C)C)C(C)(C)C)C(C)(C)c1cn(C)c2ccc(F)cc12` (stereo partly drawn) [Example MM26] was run?
A: 384 nM

Q: Which IC50 does the source give for `CN[C@H](C(=O)N[C@H](C(=O)N(C)[C@H](/C=C(\C)C(=O)N[C@@H](CCCCNC(=O)CCCN1C(=O)CC(SC[C@H](N)C(=O)O)C1=O)C(=O)O)C(C)C)C(C)(C)C)C(C)(C)c1cn(C)c2ccccc12` (stereo partly drawn) [Example MM27] here?
A: > 1000 nM

Q: How did the IC50 turn out when `C/C(=C\[C@H](C(C)C)N(C)C(=O)[C@@H](NC(=O)[C@H]1CCCCN1C(=O)CCN1C(=O)CC(SC[C@H](N)C(=O)O)C1=O)C(C)(C)C)C(=O)N[C@H](CCC(=O)O)C(=O)O` (stereo partly drawn) [Example MM29] was run?
A: > 1000 nM

Q: How did the IC50 turn out when `CN[C@H](C(=O)N[C@H](C(=O)N(C)[C@H](/C=C(\C)C(=O)N[C@H](CCC(=O)NCCN1C(=O)CC(SC[C@H](N)C(=O)O)C1=O)C(=O)O)C(C)C)C(C)(C)C)C(C)(C)c1cccc(F)c1` (stereo partly drawn) [Example MM31] was run?
A: > 1000 nM

Q: For `CNC(C(=O)N[C@H](C(=O)N(C)[C@H](/C=C(\C)C(=O)N[C@H](CCC(=O)NCCN1C(=O)CC(SC[C@H](N)C(=O)O)C1=O)C(=O)O)C(C)C)C(C)(C)C)C(C)(C)c1ccc(O)cc1` (stereo partly drawn) [Example MM33], which IC50 is on record?
A: 36 nM

Q: `CN[C@H](C(=O)N[C@H](C(=O)N(C)[C@H](/C=C(\C)C(=O)N[C@H](CCC(=O)NCCN1C(=O)CC(SC[C@H](N)C(=O)O)C1=O)C(=O)O)C(C)C)C(C)(C)C)C(C)(C)c1ccc(C(=O)O)cc1` (stereo partly drawn) [Example MM35] was tested. Which IC50 did it give?
A: > 1000 nM

Q: With `CN[C@H](C(=O)N[C@H](C(=O)N(C)[C@H](/C=C(\C)C(=O)N[C@H](CCC(=O)NCCN1C(=O)CC(SC[C@H](N)C(=O)O)C1=O)C(=O)O)C(C)C)C(C)(C)C)C(C)(C)c1cccc(OC)c1` (stereo partly drawn) [Example MM36] as the compound, how does the IC50 read?
A: > 1000 nM

Q: With `CN[C@H](C(=O)N[C@H](C(=O)N(C)[C@H](/C=C(\C)C(=O)N[C@H](CCC(=O)NCCN1C(=O)CC(SC[C@H](N)C(=O)O)C1=O)C(=O)O)C(C)C)C(C)(C)C)C(C)(C)c1cc(C)cc(C)c1` (stereo partly drawn) [Example MM37] as the compound, how does the IC50 read?
A: > 1000 nM

Q: With `CN[C@H](C(=O)N[C@H](C(=O)N(C)[C@H](/C=C(\C)C(=O)N[C@H](CCC(=O)NCCN1C(=O)CC(SC[C@H](N)C(=O)O)C1=O)C(=O)O)C(C)C)C(C)(C)C)C(C)(C)c1ccc2ccccc2c1` (stereo partly drawn) [Example MM38] as the compound, how does the IC50 read?
A: 726 nM

Same assay, conditions: in words, summary of Table 17

Q: With `CN[C@H](C(=O)N[C@H](C(=O)N(C)[C@H](/C=C(\C)C(=O)NCCCCNC(=O)CCCCCN1C(=O)CC(SC[C@H](N)C(=O)O)C1=O)C(C)C)C(C)(C)C)C(C)(C)c1cn(C)c2ccccc12` (stereo partly drawn) [Comparative Example compound, reference compound] as the compound, how does the “cellular toxicity to Karpas-299 cells” value read?
A: strong cellular toxicity
